The nature of the assay: Antioxidant assay by β-carotene-linoleate model system. Conditions: 100 ppm concentration; β-carotene bleaching, 90 min incubation at 50° C. It is filed as biochemical. Here is the method: The antioxidant activity of curry leaves extract was evaluated by the β-carotene-linoleate model (Jayaprakasha and Jaganmohan Rao, Z. Naturforsch. 55C, 1018-1022, 2000). 0.2 mg of the β-carotene in 0.5 ml of chloroform, 20 mg of linoleic acid and 200 mg of Tween-40 (polyoxyethylene sorbitan monopalmitate) were mixed together. The chloroform was removed at 40° C. under vacuum using a rotary evaporator. The resulting solution was immediately diluted with 10 ml of triple-distilled water and the emulsion was mixed well for 1 min. The emulsion was further diluted with 40 ml of oxygenated water before use. 4 ml aliquots of this mixture were transferred into different tubes containing 0.2 ml of samples at 100 ppm concentrations in ethanol, butylated hydroxyanisole (BHA) was used for comparative purposes. A control containing 0.2 ml of ethanol and 4 ml of the above mixture was prepared. Optical density (OD) at 470 nm were taken for the all extracts and pure compounds immediately (t=0) at 15 min intervals for 1.5 h (t=90). […] The antioxidant activities (AA) of the samples were evaluated in terms of bleaching the β-carotene using the following formula. AA=100[1−(Ao−At)/(A^oo−A^ot)] where Ao and A^oo are the OD measured at zero time of incubation for test sample and control, respectively. At and A^ot are the OD measured in the test sample and control, respectively, after incubation for 90 min.

In turn, `COc1ccc(O)c(C(C)(C)C)c1` [BHA, butylated hydroxy anisole] came in with an antioxidant activity of 90.2%.

The values above are taken from US20090081322A1, “Process for the preparation of antioxidant conserve from Indian curry leaves (MURRAYA KOENIGII SPRENG.)” (Council of Scientific and Industrial Research, priority 2002, published 2009).
